Results taken from PMC5607274, “An iterative compound screening contest method for identifying target protein inhibitors using the tyrosine-protein kinase Yes” (Scientific Reports, 2017).

biological target: T1, human recombinant Yes [a.a. 2–543 (end)] (Homo sapiens, UniProt P07947); test: ADP-Glo kinase assay, inhibition rates of Yes phosphorylation activity (first and second screening); format: biochemical; details: first screening; mean of n = 4 wells; 10 μmol L−1 compound
T1 construct: human recombinant Yes [a.a; 2–543 (end)]; purchased BPS Bioscience 40488
T1 sequence (P07947 2-543): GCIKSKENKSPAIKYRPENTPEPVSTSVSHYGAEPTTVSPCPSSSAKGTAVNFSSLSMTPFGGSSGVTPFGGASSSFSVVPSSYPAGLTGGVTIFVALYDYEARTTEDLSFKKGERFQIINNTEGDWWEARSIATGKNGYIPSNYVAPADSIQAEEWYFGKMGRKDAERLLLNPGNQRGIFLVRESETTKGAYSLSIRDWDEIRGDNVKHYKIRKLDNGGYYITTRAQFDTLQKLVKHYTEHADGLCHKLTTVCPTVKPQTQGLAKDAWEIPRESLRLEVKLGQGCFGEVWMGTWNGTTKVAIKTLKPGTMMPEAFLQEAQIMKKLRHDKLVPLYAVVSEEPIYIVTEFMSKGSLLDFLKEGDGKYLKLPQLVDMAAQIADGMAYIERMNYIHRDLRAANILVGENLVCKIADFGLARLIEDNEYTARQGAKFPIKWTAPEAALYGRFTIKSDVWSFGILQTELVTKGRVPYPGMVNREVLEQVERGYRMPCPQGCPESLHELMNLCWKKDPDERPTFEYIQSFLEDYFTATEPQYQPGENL
Procedure, shortened: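 Hits from a first pass were rescreened after re-dissolution from fresh powder. The first pass reported the mean inhibition rate of quadruplicate wells per compound. Activity was that of recombinant human Yes [a.a. 2–543] kinase, read out with the ADP-Glo ADP-detection method.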

Structure (SMILES)	First screening IR (inhibition rate)
Cc1ccc(Cn2ncc3c(NN)ncnc32)cc1 [Compound Z57458515]	9%
CCCN(CCC)S(=O)(=O)c1ccc(S(C)(=O)=O)cc1 [Compound Z285665192]	14%
Cc1nn(C)c2nc(-c3ccccc3)cc(C(=O)Nc3ccc4c(c3)OCO4)c12 [Compound Z222976544]	-2%
CC(C)COCCCNS(=O)(=O)CCCS(=O)(=O)N(C)C [Compound Z1702883776]	-12%
NC(=O)c1ccc2[nH]cc(C3CCN(C(=O)c4cccs4)CC3)c2c1 [Compound Z1624201749]	-35%
O=C(c1ccc(Nc2nccc(C(F)(F)F)n2)cc1)N1CCCC1 [Compound Z319025642]	-36%
C#CCN(C)S(=O)(=O)c1cc(S(C)(=O)=O)sc1Cl [Compound Z1863649257]	-18%
Cc1cc(C(=O)Nc2ccc(F)c(F)c2)c2cnn(C(C)C)c2n1 [Compound Z203269322]	39%
Cn1cncc1CC(=O)Nc1ccc2nc(-c3cc(F)ccc3F)[nH]c2c1 [Compound Z1737110153]	6%
COC(=O)c1cn(C)c(-c2ccc(NC(=O)c3ccc(CN4CCCCC4)cc3)cc2)c1C(=O)OC [Compound Z415024646]	-1%
Cc1cccc(NCC2CCN(Cc3cccc(C(N)=O)c3)C2)n1 (stereo not shown) [Compound Z990551490]	2%
O=S(=O)(c1c(Cl)cccc1Cl)N1CCN(Cc2nc3ccccc3s2)CC1 [Compound Z45503858]	3%
Nc1nc(N)nc(CSCc2ccc(-c3ccccc3)cc2)n1 [Compound Z99552008]	-6%
Cc1cccnc1NC(=O)c1ccc(CSc2ccccc2)cc1 [Compound Z58490632]	-1%
CCN(CC)C(=O)CN1CCCN(c2ncnc3c2cnn3C)CC1 [Compound Z359324360]	-4%
Cc1cc(OCC(=O)NC(C)c2ccc(-n3ccnc3)cc2)ccc1C(C)C (stereo not shown) [Compound Z27305591]	-7%
CCCCn1c(CN2CCN(c3ccccn3)CC2)nc2c1c(=O)[nH]c(=O)n2Cc1ccccc1 [Compound Z104935524]	2%
CC(=O)CCc1ccc(OCc2cc(=O)n3cc(C)ccc3n2)cc1 [Compound Z25824142]	-24%
Cl.Fc1ccccc1-c1cc(-c2ccccc2)nc2ccc(Cl)cc12 [Compound Z48955825]	-1%
Cc1oc2cc(OCC(=O)N(C)C3CCS(=O)(=O)C3)ccc2c(=O)c1-c1c(F)cccc1Cl (stereo not shown) [Compound Z25645184]	-1%
CCN(CCNC(=O)CCN1CCN(c2ccccn2)CC1)c1ccccc1C [Compound Z1255568722]	27%
Cc1occc1C(=O)Nc1cc(Nc2nccc(C(F)(F)F)n2)ccc1F [Compound Z645121524]	14%

Structure (SMILES)	First screening IR (inhibition rate)
CC(SCc1nc(N)nc(N(C)C)n1)C(=O)NC1CCCCCC1 (stereo not shown) [Compound Z197454502]	1%
CCCn1c(NC(=O)c2ccc3c(c2)NC(=O)C(C)S3)nc2ccccc21 (stereo not shown) [Compound Z29076459]	51%
Cc1nn(-c2ccc(Br)cc2)c(C)c1C(=O)Nc1ncn[nH]1 [Compound Z727167436]	-2%
CC(Sc1nnc2ccccn12)C(=O)Nc1nc(-c2ccc(Cl)c(Cl)c2)cs1 (stereo not shown) [Compound Z20241270]	4%
CCNC(=O)c1cc(-c2ccccc2)nc2c1cnn2Cc1ccccc1 [Compound Z227991512]	6%
COc1ccccc1N1CCN(Cc2csc(NC(C)=O)n2)CC1 [Compound Z46164581]	3%
CCC(C)(C)C1C/C(=C/c2ccc(C(C)C)cc2)c2nc3ccccc3c(C(=O)O)c2C1 (stereo not shown) [Compound Z46116606]	13%
C=CCN(CC(=O)Nc1ccc(S(=O)(=O)N(CC)CC)cc1)Cc1cccs1 [Compound Z89203975]	16%
Cc1nn(-c2ccccc2)c(Cl)c1CN1CCN(S(=O)(=O)c2ccccc2C(F)(F)F)CC1 [Compound Z94609806]	3%
CCN1CCN(S(=O)(=O)C2CS(=O)(=O)c3ccccc32)CC1 (stereo not shown) [Compound Z1031094372]	8%
CN(CC(=O)Nc1ccccc1Cl)C(=O)COC(=O)c1c2c(nc3ccccc13)CCC(C(C)(C)C)C2 (stereo not shown) [Compound Z19182299]	-2%
COc1ccc(C(=O)N2CCCC2)cc1NC(=O)CC1CCCC1 [Compound Z913725738]	7%
CSc1ncccc1C(=O)OCC(=O)N1N=C(c2ccc3ccccc3c2)CC1c1ccccc1 (stereo not shown) [Compound Z18838070]	9%
O=C(Nc1cccc(C(F)(F)F)c1)c1cccc(NC(=O)c2cnccn2)c1 [Compound Z30576843]	14%
Fc1ccc(-c2cc(-c3ccc(Cl)cc3)c3ccccc3n2)cc1 [Compound Z1270166647]	43%
COc1cccc(-c2nnc(SCC(=O)N3CCOCC3)n2-c2ccc(C)cc2)c1 [Compound Z19982748]	27%
Cc1ccn2cc(C(=O)NCCCn3nc(C)cc3C)nc2c1 [Compound Z137367324]	2%
O=C(CSc1nnc(-c2ccco2)o1)Nc1ccc2c(c1)CCC2 [Compound Z18650720]	15%
CCN(c1ccccc1)S(=O)(=O)c1ccc(C(=O)Nc2ccc(S(=O)(=O)N(C)C)cc2)cc1 [Compound Z29267150]	2%
C=CCN(CC(=O)Nc1cccc(C#N)c1)S(=O)(=O)c1ccccc1F [Compound Z26091205]	3%
O=C(Nc1ccc(N2CCCCC2)c(S(=O)(=O)Nc2ccc(Cl)cc2)c1)c1ccc(S(=O)(=O)NCc2ccco2)cc1 [Compound Z32729001]	-5%
NS(=O)(=O)c1cccc(S(=O)(=O)Cl)c1 [Compound Z237480338]	3%

Structure (SMILES)	First screening IR (inhibition rate)
Cc1ccc2nc(CSc3n[nH]c(-c4ccccc4)n3)cn2c1 [Compound Z25398010]	-4%
Cn1c(SCC(=O)N2c3ccccc3OCC2c2ccccc2)nnc1-c1ccncc1 (stereo not shown) [Compound Z65769442]	-1%
O=[N+]([O-])c1ccc(N2CCC(C(O)c3ncc[nH]3)CC2)nc1-c1ccccc1 (stereo not shown) [Compound Z1823608663]	-51%
Nc1c2c(nc3sc4c(c13)CCCC4)-c1ccccc1CC2 [Compound Z56772171]	-17%
CCOC(=O)c1c(C)oc2ncn(Cc3cccc(F)c3F)c(=O)c12 [Compound Z154098858]	2%
O=C(CSc1nnc(COc2ccccc2Cl)n1-c1ccccc1)N1CCc2ccccc2C1 [Compound Z20151781]	-5%
CCN(C(=O)c1cc(-c2ccccc2)nc2c1cnn2Cc1cccnc1)c1ccccc1 [Compound Z238053762]	-11%
O=C(/C=C/c1cn(-c2ccccc2)nc1-c1cccnc1)N1CC=C(c2ccccc2)CC1 [Compound Z29699890]	10%
CC(=O)c1ccc(-c2ccc(C(=O)Nc3cc(F)ccc3C)o2)cc1 [Compound Z30903878]	-3%
O=C(Nc1cccc2ncccc12)c1ccc(=O)n(-c2ccc(F)cc2)n1 [Compound Z370787214]	43%
COc1ccc(-c2nnc(SCC(=O)N3c4ccccc4OCC3c3ccccc3)n2C)cc1 (stereo not shown) [Compound Z65980497]	-3%
Cc1cc(-c2ccccc2)nc(SC(C)C(=O)Nc2sc3c(c2C(N)=O)CCC3)n1 (stereo not shown) [Compound Z114120486]	-3%
Cc1ccc(C(CNC(=O)c2cc(Cl)c[nH]2)N2CCOCC2)o1 (stereo not shown) [Compound Z254387106]	-10%
O=C(CCn1[nH]c(=O)ccc1=O)Nc1ccc(-n2cnnn2)cc1 [Compound Z51737757]	14%
CC1CCCC(C)N(S(=O)(=O)CCCS(C)(=O)=O)C1 (stereo not shown) [Compound Z1271251540]	8%
O=C(Cc1cccc(F)c1)NNC(=O)Cn1c(COc2ccc(Cl)cc2)nc2ccccc21 [Compound Z31930719]	-2%
CCc1cc(CNC(=O)NCc2ccc3cc(OC)ccc3c2)on1 [Compound Z1256754058]	-8%
Cc1ccc(-c2c(C)sc3nc(CN4CCN(CC(=O)N5CCOCC5)CC4)[nH]c(=O)c23)cc1 [Compound Z89215884]	5%
CC(NC(=O)c1ccc2nc[nH]c2c1)c1ccc(F)c(F)c1 (stereo not shown) [Compound Z28547957]	-1%
Fc1cc(NCc2cn[nH]c2-c2cccnc2)ccc1-n1ccnc1 [Compound Z1462562385]	10%
